Peptide text beside a SMILES is read from it.
Test system: healthy subjects
Assay: Safety and tolerability, adverse events, Part B MAD
[1] = Part B, 10 μg/day sc 14 days, n = 8
[2] = Part B, 20 μg/day sc 14 days, n = 8
[3] = Part B, 40 μg/day sc 14 days, n = 8
[4] = Part B, 60 μg/day sc 14 days, n = 8
[5] = Part B, 80 μg/day sc 14 days, n = 8
[6] = Part B, total eneboparatide, n = 40

Procedure: A total of five sequential cohorts were included in Part B with ten subjects in each cohort (eight receiving eneboparatide at a dose of 10, 20, 40, 60 and 80 μg/day, respectively, and two receiving placebo in a randomized and double-blind manner). […] They were resident in the study unit until day 17 and FU evaluation was performed on day 21–25.
Safety and tolerability assessments consisted of adverse events (AEs), clinical laboratory (clinical chemistry, haematology, coagulation, and urinalysis), vital signs (blood pressure, pulse rate, respiratory rate, and temperature), 12-lead ECG (Part B), 24 h continuous cardiac monitoring (telemetry; Part A), body weight, physical examination, injection site reaction, and measurement of antidrug antibodies (ADA) in plasma (Part B).

In the case of CC[C@H](C)[C@H](NC(=O)[C@H](CCC(=O)O)NC(=O)[C@H](C)NC(=O)[C@@H](NC(=O)[C@H](Cc1c[nH]cn1)NC(=O)[C@@H](NC(=O)[C@H](CCC(=O)O)NC(=O)[C@H](C)NC(=O)[C@@H](NC(=O)[C@H](CC(C)C)NC(=O)[C@H](CCCCN)NC(=O)[C@H](Cc1c[nH]cn1)NC(=O)[C@H](CC(C)C)NC(=O)[C@H](Cc1ccccc1)NC(=O)[C@H](C)NC(=O)[C@H](CCCNC(=N)N)NC(=O)[C@H](CCCNC(=N)N)NC(=O)[C@H](CCCNC(=N)N)NC(=O)[C@H](C)NC(=O)[C@H](CC(=O)O)NC(=O)[C@H](CCC(N)=O)NC(=O)[C@@H](NC(=O)[C@H](Cc1c[nH]c2ccccc12)NC(=O)[C@H](CCCCN)NC(=O)[C@H](C)NC(=O)[C@H](CCCNC(=N)N)NC(=O)[C@H](CCC(N)=O)NC(=O)[C@H](Cc1c[nH]cn1)NC(=O)[C@H](CCSC)NC(=O)[C@H](CC(C)C)NC(=O)[C@H](CCC(N)=O)NC(=O)[C@@H](NC(=O)[C@H](CCC(=O)O)NC(=O)[C@H](C)NC(=O)[C@@H](NC(=O)[C@H](C)N)C(C)C)[C@@H](C)CC)[C@@H](C)CC)[C@@H](C)CC)[C@@H](C)CC)[C@@H](C)O)C(=O)O [eneboparatide] (H-AVAEIQLMHQRAKWIQDARRRAFLHKLIAEIHTAEI-OH; N-terminus and C-terminus assumed), the “Abdominal pain, subjects with TEAE” value [1] was 0, the “Application site irritation, subjects with TEAE” value (“Application site irritation” for short) [1] was 0 and the “Catheter site haematoma, subjects with TEAE” value (“Catheter site haematoma” for short) [1] was 3. For the same compound, the “Catheter site pain, subjects with TEAE” value [1] was 1, the “Decreased appetite, subjects with TEAE” value [1] was 0 and the “Diarrhoea, subjects with TEAE” value [1] was 0. The “Dizziness, subjects with TEAE” value [1] was 0, the “Dry skin, subjects with TEAE” value [1] was 0 and the “Dyspepsia, subjects with TEAE” value [1] was 0. For the same compound, the “Fatigue, subjects with TEAE” value [1] was 2, the “Flatulence, subjects with TEAE” value [1] was 1 and the “Headache, subjects with TEAE” value [1] was 1. The “Injection site erythema, subjects with TEAE” value (“Injection site erythema” for short) [1] was 0, the “Injection site haematoma, subjects with TEAE” value (from here on “Injection site haematoma”) [1] was 3 and the “Injection site pain, subjects with TEAE” value [1] was 1. For the same compound, the “Injection site pruritus, subjects with TEAE” value (from here on “Injection site pruritus”) [1] was 0, the “Injection site tenderness, subjects with TEAE” value (“Injection site tenderness” for short) [1] was 0 and the “Insomnia, subjects with TEAE” value [1] was 0. The “Muscle spasms, subjects with TEAE” value [1] was 0, the “Myalgia, subjects with TEAE” value [1] was 1 and the “Nausea, subjects with TEAE” value [1] was 0. The “Somnolence, subjects with TEAE” value [1] was 1, the “Vomiting, subjects with TEAE” value [1] was 0 and the “Abdominal pain, subjects with TEAE” value [2] was 0. For the same compound, the “Application site irritation” value [2] was 3, the “Catheter site haematoma” value [2] was 0 and the “Catheter site pain, subjects with TEAE” value [2] was 0. The “Decreased appetite, subjects with TEAE” value [2] was 0, the “Diarrhoea, subjects with TEAE” value [2] was 1 and the “Dizziness, subjects with TEAE” value [2] was 1. For the same compound, the “Dry skin, subjects with TEAE” value [2] was 2, the “Dyspepsia, subjects with TEAE” value [2] was 1 and the “Fatigue, subjects with TEAE” value [2] was 0. The “Flatulence, subjects with TEAE” value [2] was 1, the “Headache, subjects with TEAE” value [2] was 1 and the “Injection site erythema” value [2] was 1. The “Injection site haematoma” value [2] was 3, the “Injection site pain, subjects with TEAE” value [2] was 0 and the “Injection site pruritus” value [2] was 2. The “Injection site tenderness” value [2] was 0, the “Insomnia, subjects with TEAE” value [2] was 1 and the “Muscle spasms, subjects with TEAE” value [2] was 0. The “Myalgia, subjects with TEAE” value [2] was 0, the “Nausea, subjects with TEAE” value [2] was 2 and the “Somnolence, subjects with TEAE” value [2] was 0. The “Vomiting, subjects with TEAE” value [2] was 0, the “Abdominal pain, subjects with TEAE” value [3] was 1 and the “Application site irritation” value [3] was 0. The “Catheter site haematoma” value [3] was 1, the “Catheter site pain, subjects with TEAE” value [3] was 4 and the “Decreased appetite, subjects with TEAE” value [3] was 1. The “Diarrhoea, subjects with TEAE” value [3] was 2, the “Dizziness, subjects with TEAE” value [3] was 0 and the “Dry skin, subjects with TEAE” value [3] was 0. The “Dyspepsia, subjects with TEAE” value [3] was 2, the “Fatigue, subjects with TEAE” value [3] was 0 and the “Flatulence, subjects with TEAE” value [3] was 1. For the same compound, the “Headache, subjects with TEAE” value [3] was 3, the “Injection site erythema” value [3] was 4 and the “Injection site haematoma” value [3] was 5. The “Injection site pain, subjects with TEAE” value [3] was 0, the “Injection site pruritus” value [3] was 3 and the “Injection site tenderness” value [3] was 0. For the same compound, the “Insomnia, subjects with TEAE” value [3] was 1, the “Muscle spasms, subjects with TEAE” value [3] was 2 and the “Myalgia, subjects with TEAE” value [3] was 4. The “Nausea, subjects with TEAE” value [3] was 1, the “Somnolence, subjects with TEAE” value [3] was 3 and the “Vomiting, subjects with TEAE” value [3] was 0. The “Abdominal pain, subjects with TEAE” value [4] was 1, the “Application site irritation” value [4] was 0 and the “Catheter site haematoma” value [4] was 0. The “Catheter site pain, subjects with TEAE” value [4] was 0, the “Decreased appetite, subjects with TEAE” value [4] was 2 and the “Diarrhoea, subjects with TEAE” value [4] was 0. For the same compound, the “Dizziness, subjects with TEAE” value [4] was 1, the “Dry skin, subjects with TEAE” value [4] was 0 and the “Dyspepsia, subjects with TEAE” value [4] was 2. The “Fatigue, subjects with TEAE” value [4] was 1, the “Flatulence, subjects with TEAE” value [4] was 1 and the “Headache, subjects with TEAE” value [4] was 4. The “Injection site erythema” value [4] was 3, the “Injection site haematoma” value [4] was 3 and the “Injection site pain, subjects with TEAE” value [4] was 2. The “Injection site pruritus” value [4] was 0, the “Injection site tenderness” value [4] was 2 and the “Insomnia, subjects with TEAE” value [4] was 1. The “Muscle spasms, subjects with TEAE” value [4] was 0, the “Myalgia, subjects with TEAE” value [4] was 0 and the “Nausea, subjects with TEAE” value [4] was 5. The “Somnolence, subjects with TEAE” value [4] was 3, the “Vomiting, subjects with TEAE” value [4] was 3 and the “subjects with transient hypercalcaemia” value (Part B, 80 μg/d, well-tolerated, resolved spontaneously after day 14) was “six of the eight”. For the same compound, the “Abdominal pain, subjects with TEAE” value [5] was 0, the “Application site irritation” value [5] was 0 and the “Catheter site haematoma” value [5] was 1. The “Catheter site pain, subjects with TEAE” value [5] was 1, the “Decreased appetite, subjects with TEAE” value [5] was 0 and the “Diarrhoea, subjects with TEAE” value [5] was 0. For the same compound, the “Dizziness, subjects with TEAE” value [5] was 1, the “Dry skin, subjects with TEAE” value [5] was 0 and the “Dyspepsia, subjects with TEAE” value [5] was 0. The “Fatigue, subjects with TEAE” value [5] was 0, the “Flatulence, subjects with TEAE” value [5] was 0 and the “Headache, subjects with TEAE” value [5] was 1. For the same compound, the “Injection site erythema” value [5] was 2, the “Injection site haematoma” value [5] was 3 and the “Injection site pain, subjects with TEAE” value [5] was 0. The “Injection site pruritus” value [5] was 1, the “Injection site tenderness” value [5] was 1 and the “Insomnia, subjects with TEAE” value [5] was 0. For the same compound, the “Muscle spasms, subjects with TEAE” value [5] was 0, the “Myalgia, subjects with TEAE” value [5] was 0 and the “Nausea, subjects with TEAE” value [5] was 4. For the same compound, the “Somnolence, subjects with TEAE” value [5] was 2, the “Vomiting, subjects with TEAE” value [5] was 1 and the “Abdominal pain, subjects with TEAE” value [6] was 2 (5) n (%). The “Application site irritation” value [6] was 3 (7.5) n (%), the “Catheter site haematoma” value [6] was 5 (12.5) n (%) and the “Catheter site pain, subjects with TEAE” value [6] was 6 (15) n (%). For the same compound, the “Decreased appetite, subjects with TEAE” value [6] was 3 (7.5) n (%), the “Diarrhoea, subjects with TEAE” value [6] was 3 (7.5) n (%) and the “Dizziness, subjects with TEAE” value [6] was 3 (7.5) n (%). For the same compound, the “Dry skin, subjects with TEAE” value [6] was 2 (5) n (%), the “Dyspepsia, subjects with TEAE” value [6] was 5 (12.5) n (%) and the “Fatigue, subjects with TEAE” value [6] was 3 (7.5) n (%). The “Flatulence, subjects with TEAE” value [6] was 4 (10) n (%), the “Headache, subjects with TEAE” value [6] was 10 (25) n (%) and the “Injection site haematoma” value [6] was 17 (42.5) n (%). For the same compound, the “Injection site pain, subjects with TEAE” value [6] was 3 (7.5) n (%), the “Injection site pruritus” value [6] was 6 (15) n (%) and the “Injection site tenderness” value [6] was 3 (7.5) n (%). The “Insomnia, subjects with TEAE” value [6] was 3 (7.5) n (%), the “Muscle spasms, subjects with TEAE” value [6] was 2 (5) n (%) and the “Myalgia, subjects with TEAE” value [6] was 5 (12.5) n (%). The “Nausea, subjects with TEAE” value [6] was 12 (30) n (%), the “Somnolence, subjects with TEAE” value [6] was 9 (22.5) n (%) and the “Vomiting, subjects with TEAE” value [6] was 4 (10) n (%). For the same compound, the “telemetry (Part A) or ECG (Part B), blood pressure, heart rate, respiratory rate” value (Parts A and B) was “No changes of clinical relevance”, the “serious or severe AEs” value (Parts A and B: single up to 120 μg, multiple up to 80 μg/day for 14 days) was “No serious or severe AEs were reported” and the “vomiting (mild/moderate AE associated with hypercalcaemia), subjects” value (highest doses tested) was “four out of 40”.
